Reference: publication PMC6175062, “Gaining Mechanistic Insight Into Coproporphyrin I as Endogenous Biomarker for OATP1B‐Mediated Drug–Drug Interactions Using Population Pharmacokinetic Modeling and Simulation” (Clinical Pharmacology and Therapeutics, 2018)
Values joined by “and” are separate entries in the source; they are usually repeats but may differ in a detail not shown here. Identical values can stand only once. Like-named read-outs stand apart in the source and are kept apart here. Each block holds one compound with its values, some of them ahead of it.

Assays:
OATP = conditions: cited from earlier work
[1] = Population PK model of rosuvastatin plasma and urine data with/without rifampicin; assay type: in vivo, human
Method: (§1) Individual plasma and urine data were obtained from a previous study in 12 healthy male subjects.6 The study was split into three occasions (OCC1–3) with a 7‐day washout period between OCC1 and 2 and OCC2 and 3. During each occasion, baseline CPI urine and plasma samples were collected (Figure S2). A single 600‐mg oral dose of RIF and a single 5‐mg oral dose of RSV were administered to the volunteers in OCC1 and OCC2, respectively. Finally, in OCC3 the same respective doses of RIF and RSV were coadministered to healthy volunteers. Plasma (RIF, RSV, and CPI) were collected at predefined timepoints over the 24‐h period following administration of RIF and/or RSV. Urine samples were collected over one time interval (−7 to 0 h) for the pretreatment sample (CPI monitored) and two subsequent intervals (0–7 h and 7–24 h) for posttreatment samples of CPI and RSV. The total number of plasma samples for modeling purposes were 276 (OCC1 = 144, OCC3 = 132), 420 (OCC1 = 144, OCC2 = 144, OCC3 = 132), and 264 (OCC2 = 132, OCC3 = 132) for RIF, CPI, and RSV, respectively, whereas the total number of urine samples were 102 (pretreatment = 34, posttreatment = 68) and 44 for CPI and RSV, respectively. No subjects enrolled in the clinical study had OATP1B1*5 or OATP1B1*15 mutations, associated with altered OATP1B1 activity.
(§2) Population PK models were developed sequentially for analysis of RIF, CPI, and RSV plasma and urine data using nonlinear mixed‐effects modeling software, NONMEM, with first‐order conditional estimation method.32 Statistical analysis, GOF plots, and other graphical analysis were conducted in MATLAB. The structural models for RIF and RSV (Supplementary Material) were selected based on population PK models available in the literature.34, 35 An exponential model was used to describe interindividual variability random‐effects parameters and IOV was evaluated for the model parameters; occasions were defined as periods of different visits following recruitment or washout periods. Covariates and random‐effects parameters (IIV and IOV) were retained in the models when there was a significant change in objective function and improvement in GOF plots. The incorporation of IIV and IOV in the models is shown in Equation 2: (2) θik=θ⋅e^ηi+κik where θ ik is the parameter for i^th individual on k^th occasion, θ is the population (typical individual) parameter, η i is the parameter that describes the deviation of the i^th individual parameter from the population (IIV), and k ik the parameter that describes the deviation of the i^th individual from the population in addition to η ik at the k^th occasion (IOV). Both random effect parameters (η ik and k ik) are assumed to be randomly distributed with a mean of zero and the variances are estimated during analysis. Proportional or additive or combination of proportional and additive residual error models were investigated for the residuals.
Based on the available plasma and urine data, a two compartment first order absorption and elimination model was used to describe the PK of RSV in the subjects. The model was parameterised using [picture] , volume of distribution of central ( [picture] ) and peripheral compartments ( [picture] ), inter-compartmental clearance ( [picture] ), biliary ( [picture] ) and renal ( [picture] ) clearance parameters. Analogous to CPI, inhibition of [picture] by RIF was incorporated in the rate of change of RSV plasma concentration, whereas it was assumed that RIF has no effect on RSV renal elimination (Eq 2). The rate of change of RSV amount in urine over time is shown in Eq3.
where [picture] and [picture] are RSV concentrations in central (plasma) and peripheral compartments, [picture] is the amount in depot compartment, [picture] is RSV amount in the urine and [picture] is RIF transporter inhibition constant using RSV as a probe. […]

[2] = Analysis of individual clinical CPI and rosuvastatin data (baseline, AUCR, fT); assay type: in vivo, human; conditions: for mean fraction eliminated via transporters (fT): from AUC with/without RIF (Equation 1)
Method: as §1
Variability in baseline CPI plasma concentration between the three occasions was assessed and a one‐way analysis of variance (ANOVA) test was used to determine any significant differences. CPI and RSV plasma concentrations in the presence/absence of RIF were used to calculate the area under the curve (AUC) using the trapezoid function in MATLAB (MathWorks, Natick, MA, 2015a). Subsequently, the fold change in RSV and CPI AUC of each individual and the fraction eliminated by transporters (fT) for each probe was calculated (Equation 1). (1) fT=1−AUC(control)/AUC(+inhibitor)

[3] = Population PK (turnover) model of CPI plasma and urine data with/without rifampicin; assay type: in vivo, human
Method: as §1, §2
The plasma concentrations of the endogenous biomarker CPI were described using a turnover model (Equation 3).36 Simultaneous fitting of individual CPI plasma and urine data in the presence and absence of RIF was performed. In the final model, RIF inhibited biliary elimination (CL b,CPI) of CPI, whereas its renal clearance (CL R,CPI) and k syn were not affected. The rate of change of CPI plasma concentration under baseline and RIF condition is shown in Equations 3 and 4, respectively, whereas change in CPI amount in urine over time is shown in Equation 5. (3) dCCPI/dt=[ksyn−CLb,CPI⋅CCPI−CLR,CPI⋅CCPI]⋅1/VCPI (4) dCCPI/dt=[ksyn−CLb,CPI⋅CCPI/1+CRIF/KiCPI−CLR,CPI⋅CCPI]⋅1/VCPI (5) dUCPI/dt=CLR,CPI⋅CCPI where C CPI is its plasma concentration, U CPI is the CPI amount in urine, t is time, k syn is the zero‐order synthesis rate, Ki CPI is RIF transporter inhibition constant using CPI as a probe, V CPI is the volume of distribution of CPI and C RIF is RIF plasma concentration (linked to RIF model). […]

Compound: C=C[C@@H]1C[C@]1(NC(=O)[C@@H]1C[C@@H](Oc2ncc(OC)c3ccc(Cl)cc23)CN1C(=O)[C@@H](NC(=O)OC(C)(C)C)C(C)(C)C)C(=O)NS(=O)(=O)C1CC1 [Asunaprevir]
Fold Change in AUC of rosuvastatin (OATP; inhibitor 200 mg, rosuvastatin 10 mg, ref (14)): 1.41 fold

Compound: CC[C@H]1OC(=O)[C@H](C)[C@@H](O[C@H]2C[C@@](C)(OC)[C@@H](O)[C@H](C)O2)[C@H](C)[C@@H](O[C@@H]2O[C@H](C)C[C@H](N(C)C)[C@H]2O)[C@](C)(OC)C[C@@H](C)C(=O)[C@H](C)[C@@H](O)[C@]1(C)O [Clarithromycin]
Fold Change in AUC of rosuvastatin (OATP; inhibitor 500 mg, rosuvastatin 0.025 mg, ref (15)): 1.56 fold

Compound: C=C[C@@H]1C[C@]1(NC(=O)[C@@H]1C[C@@H]2CN1C(=O)[C@H](C(C)(C)C)NC(=O)O[C@@H]1C[C@H]1CCCCCc1nc3ccc(OC)cc3nc1O2)C(=O)NS(=O)(=O)C1CC1.O [Grazoprevir]
Fold Change in AUC of rosuvastatin (OATP; inhibitor 200 mg, rosuvastatin 10 mg, ref (16)): 1.59 fold

Compound: CCC(C)n1ncn(-c2ccc(N3CCN(c4ccc(OCC5COC(Cn6cncn6)(c6ccc(Cl)cc6Cl)O5)cc4)CC3)cc2)c1=O (stereo not shown) [Itraconazole]
Fold Change in AUC of rosuvastatin (OATP; inhibitor 200 mg, rosuvastatin 0.025 mg, ref (15)): 1.78 fold

Compound: Cc1cnc(C(=O)N[C@H]2CCCCC/C=C\[C@@H]3C[C@@]3(C(=O)NS(=O)(=O)C3CC3)NC(=O)[C@@H]3C[C@@H](Oc4nc5ccccc5c5ccccc45)CN3C2=O)cn1 [Paritaprevir]
Fold Change in AUC of rosuvastatin (OATP; inhibitor 150 mg, rosuvastatin 10 mg, ref (17)): 2.6 fold

Compound: CC(C)c1nc(N(C)S(C)(=O)=O)nc(-c2ccc(F)cc2)c1/C=C/[C@@H](O)C[C@@H](O)CC(=O)O [RSV, rosuvastatin]
QRSV, population estimate (SE%) ([1]; RSV alone): 45.3 (19) L/h | V1RSV, population estimate (SE%) ([1]; RSV alone): 430 (12) L | V2RSV, population estimate (SE%) ([1]; RSV alone): 865 (37) L | QRSV (RIF), population estimate (SE%) ([1]; co-administered with RIF): 5.03 (18) L/h | V1RSV (RIF), population estimate (SE%) ([1]; co-administered with RIF): 2.98 (50) L | V2RSV (RIF), population estimate (SE%) ([1]; co-administered with RIF): 128 (42) L | contribution of biliary clearance to elimination ([1]; in vivo): 94% | reduction of V1RSV in the presence of RIF ([1]; in vivo): > 90% | CL renal ([1]; male, human, in vivo, 5 mg): 141 mL/min | CLb,RSV, population estimate (SE%) ([1]; male, human, in vivo, 5 mg): 124 (11) L/h | kaRSV, population estimate (SE%) ([1]; single 5-mg oral dose): 0.287 (9) h^−1 | change in Cmax (fold increase) following RIF ([2]; RIF 600 mg co-administered): 13.2 fold | range of estimated individual fT ([2]; from AUC with/without RIF): 0.66–0.88 | mean fraction eliminated via transporters (fT) [2]: 0.79

Compound: COc1ccc2c(O[C@@H]3C[C@H]4C(=O)N[C@]5(C(=O)NS(=O)(=O)C6CC6)C[C@H]5/C=C\CCCCN(C)C(=O)[C@@H]4C3)cc(-c3nc(C(C)C)cs3)nc2c1C [Simeprevir]
Fold Change in AUC of rosuvastatin (OATP; inhibitor 150 mg, rosuvastatin 10 mg, ref (19)): 2.8 fold

Compound: COC[C@H]1C[C@@H](c2ncc(-c3ccc4c(c3)COc3cc5c(ccc6nc([C@@H]7CC[C@H](C)N7C(=O)[C@@H](NC(=O)OC)C(C)C)[nH]c65)cc3-4)[nH]2)N(C(=O)[C@H](NC(=O)OC)c2ccccc2)C1 [Velpatasvir]
Fold Change in AUC of rosuvastatin (OATP; inhibitor 100 mg, rosuvastatin 10 mg, ref (18)): 2.69 fold

maximal contribution of biliary clearance to total clearance ([3]; basal conditions): > 85% and 88% | VCPI, population estimate (SE%) ([3]; baseline): 6.59 (12) L | ksyn (zero-order synthesis rate), population estimate (SE%) ([3]; endogenous CPI): 12.7 (6) nM/h | VCPI (RIF), population estimate (SE%) ([3]; in the presence of RIF): 3.4 (13) L | CLR,CPI (renal clearance), population estimate (SE%) ([3]; in vivo): 1.64 (6) L/h | reduction of estimated VCPI in the presence of RIF ([3]; in vivo): ~50% | mean fraction eliminated via transporters (fT) [2]: 0.76
Compound: coproporphyrin I [CPI]
